This note sets out measurements from patent US20260373132A1, “PERK INHIBITORHC-5404 IN COMBINATION WITH ANTI-PD-1 ANTIBODY AND/OR AN ANTIANGIOGENETIC AGENT FOR USE IN THE TREATMENT OF CANCER” (HIBERCELL, INC., priority 2022, published 2026).

Assay [1] deals with MB49 syngeneic bladder cancer model. The experiment in a line: MB49 syngeneic bladder cancer tumor growth. In kind it is in vivo, mouse. On the procedure: (§1) C57BL/6 mice were subcutaneously inoculated with MB49 cells, and treatment started on day 8 post cell inoculation. A group of animals (n=10/group) received either vehicle, HC-5404 (PO, BID) (3 mg/kg, 10 mg/kg, or 30 mg/kg), 5 mg/kg anti-PD-1 antibody (aPD-1) (RMP1-14) (IP, BIW), or the combination of both. At various timepoints, animals were sacrificed, and flow cytometry was performed on blood or single cell suspensions from tumors or lymph nodes (n=6).
MB49 (lot #18B016) mouse urothelial carcinoma cell line was purchased from Sigma—The European Collection of Authenticated Cell Cultures (ECACC). Cells were free of human and animal pathogens as tested by h-IMPACT-I and IMPACT-III (IDEXX Bioresearch, Columbia, MO). Additionally, the genetic profile of the cells matched with the ECACC reference standard as tested by STR based DNA fingerprinting assay. Cells were maintained in DMEM with 10% FBS, and cultured up to 4 passages prior to implantation. Cells were harvested at ~80% confluence, washed twice with DMEM without FBS and suspended in DMEM without FBS at 5×10^6 cells/mL for implantation.
[…] (7-8 week of age) were implanted into the right flank area subcutaneously under Isoflurane anesthesia with 0.5×10^6 MB49 cells/mouse in a total volume of […] on Day 0. Animals were randomized into treatment groups when the average tumor volume reached ~50 mm^3 on Day 5 post inoculation.
Tumor volume was measured twice weekly.
Tumor volume was calculated using the formula [tumor volume (mm^3)=π/6×length×width^2) and plotted as means±SEM. The % T/C (ratio between the tumor volume in the treated group and in the control group) was calculated by the formula 100×ΔT/ΔC, if ΔT>0 of the mean values. ΔT, mean tumor volume of the drug-treated group on the observation day of the study—mean tumor volume of the drug-treated group on initial day of dosing; ΔC, mean tumor volume of the control group on the observation day of the study—mean tumor volume of the control group on initial day of dosing. Regression was calculated using the formula=100×ΔT/Tinitial, if ΔT<0. Animals with <14 mm^3 tumor volume for three consecutive measurements were considered as complete responders and tumors with >50% regressions were partial responders.
This example investigated the effect of HC-5404, aPD-1, and HC-5404 in combination with aPD-1 on myeloid cells in tumor microenvironment and T-cell activation following procedures analogous to those described above using MB49 syngeneic model. […] Mice with established syngeneic MB49 tumors were randomized 6 days post tumor inoculation into groups that received either vehicle (0.5% methylcellulose in water, BID, PO), HC-5404 (10 or 30 mg/kg, BID, PO), anti-PD-1 Ab (10 mg/kg, BIW), or both HC-5404 and anti-PD-1.

For assay [2], the system named is myeloid, lymphoid and tumor cells in MB49 model. The experiment in a line: flow cytometry of tumor, lymph node and blood cells in MB49 model. In kind it is in vivo, mouse. The note with it: 10, 30 mg/kg (FIG. 8). On the procedure:
as §1
Tumor tissue samples were obtained 7 days post treatment (14 days post inoculation). Single cells were prepared by enzymatic digestion of tumor tissues and subsequently analyzed by flow cytometry on a Cytek Aurora. Expression of IFNAR1 (A) and PD-L1 (B) on the myeloid populations and tumors were shown.
Surface calreticulin was analyzed by flow cytometry on MB49 tumor cells d7 post treatment.
Single cell suspensions were washed in PBS twice and then stained with the LIVE/DEAD fixable blue dead cell stain (Invitrogen cat #L23105) at 1:3000 dilution for 30 minutes at 4 °C. […]
LN cells from day 14 post treatment samples were analyzed by flow cytometry. […]
Whole blood was collected on the indicated date post treatment in a MB49 model. IFNAR1 expression was determined by flow cytometry and gated on CD14+ monocytes […]

In the case of `Cc1cc(NC(=O)[C@H](O)c2cc(F)cc(F)c2)ccc1-c1cnc(N)c(C(=O)NC(C)C)c1` [HC-5404, (R)-2-amino-5-(4-(2-(3,5-difluorophenyl)-2-hydroxyacetamido)-2-methylphenyl)-N-isopropylnicotinamide], the TGI % in assay [1] (Experiment #1, HC-5404 30 mpk, aPD-1, alone or combined) was 52.99%; in assay [1] (Experiment #2, HC-5404 30 mpk, aPD-1, alone or combined), 10.64%. Besides, the “tumor growth inhibition (TGI)” value in assay [1] (HC-5404 PO BID, aPD-1 5 mg/kg IP BIW, alone or combined) was 32%. Also, the “TGI %, average” value in assay [1] (average of two independent studies, HC-5404 30 mpk, aPD-1, alone or combined) amounted to 31.82%. For the same compound, the “effect on IFNAR1 on monocytes in peripheral blood” value in assay [2] was “also detected on monocytes in peripheral blood”.
